Tested on: E. multilocularis metacestodes
Assay: PGI assay: phosphoglucose isomerase release from damaged metacestodes
Format: cell-based, Echinococcus multilocularis
Details: 10 μM, 5 days, single wells, relative to DB1127 (10 μM)
Method: The preparation of E. multilocularis metacestode material (strain H95) from intraperitoneally (i.p.) infected BALB/c mice was performed as described earlier. Metacestode vesicles were used for in vitro drug screening when they reached 2 to 4 mm in diameter.
For screening of the Malaria Box against E. multilocularis metacestodes, the PGI screening assay was applied that measures the release of the enzyme phosphoglucose isomerase (PGI) upon physical impairment of metacestodes. The screening setup was done in 24 well plates as described by Stadelmann et al. For initial screening, each drug was applied at 10 μM to metacestodes in single wells. As a positive control-drug, the dicationic diguanidino compound DB1127 (10 μM) was used and 0.1% DMSO was added as negative control. Metacestodes were cultured in the presence of the compounds for 5 days, after which PGI release was quantified exactly as stated in Stadelmann et al. […] Averages, standard deviations and EC50 values were calculated in Microsoft Excel 2010.

Structure (SMILES)	PGI (% of DB1127 at 10 uM) [%]
CCOc1ccc2nc(C)cc(Nc3ccc(N(C)C)cc3)c2c1.Cl [MMV007020]	-3.98
Cc1ccc2c(C)nc(Nc3nc(C)cc(-c4ccccc4)n3)nc2c1 [MMV007041]	-2.18
CCOc1ccc(CN2CCN(CC(O)COc3ccc(OCC(O)CN4CCN(Cc5ccc(OCC)cc5)CC4)cc3)CC2)cc1 (stereo not drawn) [MMV007092]	-3.58
c1ccc(/C2=N/c3ccccc3/N=C(/c3ccccc3)c3ccccc32)cc1 [MMV007113]	13.66
CCOC(=O)c1c[nH]c2ccc(CC)cc2c1=O [MMV007116]	80.46
Cc1ccc(N2C3c4ccccc4N(S(=O)(=O)c4ccc(C)cc4)C2c2ccccc2N3S(=O)(=O)c2ccc(C)cc2)cc1 [MMV007160]	-42.36
Cc1cc(Nc2ccc(OCc3ccccc3)cc2)nc2cc(O)ccc12 [MMV007181]	115.72
COc1ccccc1N1C(=N)SC(=Cc2ccc(OCc3ccccc3F)cc2)C1=O [MMV007199]	-51.03
COc1ccc(OC)c(C2C3=C(CC(C)(C)CC3=O)N(c3ccc(Cl)c(Cl)c3)C3=C2C(=O)CC(C)(C)C3)c1 [MMV007208]	-12.95
Cc1cccc(N2C(=O)C3C(C2=O)C2(c4ccccc4)C(=O)C3(c3ccccc3)C(c3ccc4c(c3)OCO4)=C2c2ccc3c(c2)OCO3)c1 (stereo not drawn) [MMV007228]	7.95
COc1cc(-c2nc(-c3ccc(Sc4ccccc4)cc3)c(-c3ccccc3)[nH]2)cc(OC)c1O [MMV007273]	-7.16
Cc1ccc(F)cc1NC(=O)c1cc(Cl)ccc1Nc1ccccc1 [MMV007275]	1.44
CCOc1ccc(Nc2ccnc3cc(Cl)ccc23)cc1 [MMV007285]	-9.06
Clc1ccc2c(N3CCCC3)ccnc2c1 [MMV007363]	-15.91
CCc1ccc(Nc2cc(C)nc3nc(C)nn23)cc1 [MMV007374]	12.73
COc1ccc(-c2nc3cc(Cc4ccc5[nH]c(-c6ccc(OC)cc6)nc5c4)ccc3[nH]2)cc1 [MMV007384]	61.95
Cc1ccccc1OCCSc1nc2ccc(NC(=O)c3cccs3)cc2s1 [MMV007396]	-6.56
O=C(NCc1ccco1)C1CCN(S(=O)(=O)c2ccc(Br)cc2)CC1 [MMV007430]	-0.53
COc1cc2c3cc1Oc1c(OC)c(OC)cc4c1C(Cc1ccc(O)c(c1)Oc1ccc(cc1)CC3N(C)CC2)N(C)CC4.Cl (stereo not drawn) [MMV007474]	-10.35
COc1ccc(CCNC(=O)c2cc(S(=O)(=O)N3CC(C)CC(C)C3)ccc2Sc2ccc(F)cc2)cc1OC (stereo not drawn) [MMV007557]	14.98
Cc1ccc(Cn2c(N3CCC(C(=O)NCc4cccs4)CC3)nc3ccccc32)cc1 [MMV007564]	-118.82
Cc1ccc(CSCc2ccc(C(=O)NC3CC3)o2)cc1 [MMV007571]	-9.42
O=C(Nc1ccc(C23CC4CC(CC(c5ccccc5)(C4)C2)C3)cc1)c1cccs1 [MMV007574]	-11.28
Cc1ccccc1OCCSc1nc2ccc(NC(=O)c3ccccc3)cc2s1 [MMV007577]	-17.47
COc1ccc(C(=O)C(CCC(CNC(C)(C)C)C(=O)c2ccc(OC)cc2)CNC(C)(C)C)cc1 (stereo not drawn) [MMV007591]	-0.71
CC(=O)NCCc1nc2ccccc2n1Cc1ccc(C(C)C)cc1 [MMV007617]	-2.63
Br.Cc1ccc(C)c(-c2csc(Nc3ccc(C)c(C)c3)n2)c1 [MMV007654]	3.26
CCCCCCOC(=O)C1=C(C)NC(=O)NC1c1ccccc1F (stereo not drawn) [MMV007686]	-24.58
COc1ccc(C(C)=O)cc1N1C(=O)C2C(C1=O)C1(c3ccccc3)C(=O)C2(c2ccccc2)C(c2ccc(C)cc2)=C1c1ccc(C)cc1 (stereo not drawn) [MMV007695]	4.56
CCCCc1c(CCC)c(=N)c2ccccc2n1C.I [MMV007764]	29.51

Source: publication PMC4788259 (PLoS Neglected Tropical Diseases, 2016)
